Test results published in US7932270B2 (Cytokinetics, Inc., priority 2006, dated 2011).

Target: T1, chicken gizzard smooth muscle myosin subfragment-1 chemically crosslinked to cardiac or skeletal actin (Gallus gallus, UniProt P10587)
T1 construct: chicken gizzard smooth muscle myosin subfragment-1; from tissue; host or cells: chicken gizzard
Assay: Smooth muscle myosin ATPase dose response assay (pyruvate kinase/horseradish peroxidase/pyruvate oxidase-coupled, amplex red fluorescence)
Assay type: biochemical
Details: read-out: IC50 Arithmetic Mean
Summary of the method: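 Chicken gizzard myosin S1 crosslinked to cardiac or skeletal actin, titrated to a set hydrolysis rate; 0.15 mM ATP, 12 mM PIPES pH 7.00, 100 mM KCl, 2 mM MgCl2. Pyruvate kinase/pyruvate oxidase/HRP coupling with amplex red fluorescence; IC50 from 4-parameter fit.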

T1 sequence (P02607 2-151): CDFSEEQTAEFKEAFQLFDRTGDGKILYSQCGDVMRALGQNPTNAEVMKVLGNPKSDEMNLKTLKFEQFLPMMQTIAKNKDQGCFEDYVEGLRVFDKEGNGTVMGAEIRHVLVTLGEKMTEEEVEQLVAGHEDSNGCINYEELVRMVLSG
T1 sequence (P10587 84-789): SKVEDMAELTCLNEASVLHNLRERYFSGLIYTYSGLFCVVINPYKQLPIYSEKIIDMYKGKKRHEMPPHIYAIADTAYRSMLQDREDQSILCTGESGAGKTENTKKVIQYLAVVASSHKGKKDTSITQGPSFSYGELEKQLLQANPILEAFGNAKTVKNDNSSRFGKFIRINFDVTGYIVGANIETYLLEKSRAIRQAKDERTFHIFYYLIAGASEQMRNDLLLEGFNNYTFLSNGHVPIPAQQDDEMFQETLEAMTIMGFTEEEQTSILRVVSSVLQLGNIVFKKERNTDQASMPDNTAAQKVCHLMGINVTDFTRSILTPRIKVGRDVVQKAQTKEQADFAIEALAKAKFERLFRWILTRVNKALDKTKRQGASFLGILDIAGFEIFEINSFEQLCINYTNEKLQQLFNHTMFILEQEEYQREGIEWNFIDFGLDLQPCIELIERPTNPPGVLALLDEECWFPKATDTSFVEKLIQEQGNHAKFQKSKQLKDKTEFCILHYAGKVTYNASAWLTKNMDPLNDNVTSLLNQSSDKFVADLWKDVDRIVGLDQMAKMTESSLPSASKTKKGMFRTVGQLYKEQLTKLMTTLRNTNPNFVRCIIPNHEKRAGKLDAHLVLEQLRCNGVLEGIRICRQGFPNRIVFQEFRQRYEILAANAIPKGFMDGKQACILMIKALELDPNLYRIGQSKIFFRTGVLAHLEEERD

SMILES	IC50
N#Cc1ccccc1-c1ccc(C(=O)NCc2ncco2)c(NCCc2cccc(F)c2)n1 [(6-(2-cyanophenyl)-2-{[2-(3-fluorophenyl)ethyl]amino}(3-pyridyl))-N-(1,3-oxazol-2-ylmethyl)carboxamide]	40 nM
N#Cc1ccccc1-c1ccc(C(=O)NCCc2ccccn2)c(NCCc2cccc(F)c2)n1 [(6-(2-cyanophenyl)-2-{[2-(3-fluorophenyl)ethyl]amino}(3-pyridyl))-N-(2-(2-pyridyl)ethyl)carboxamide]	291 nM
N#Cc1ccccc1-c1ccc(C(=O)NCCc2cccnc2)c(NCCc2cccc(F)c2)n1 [(6-(2-cyanophenyl)-2-{[2-(3-fluorophenyl)ethyl]amino}(3-pyridyl))-N-(2-(3-pyridyl)ethyl)carboxamide]	150 nM
N#Cc1ccccc1-c1ccc(C(=O)NCCO)c(NCCc2cccc(F)c2)n1 [(6-(2-cyanophenyl)-2-{[2-(3-fluorophenyl)ethyl]amino}(3-pyridyl))-N-(2-hydroxyethyl)carboxamide]	1080 nM
COCCNC(=O)c1ccc(-c2ccccc2C#N)nc1NCCc1cccc(F)c1 [(6-(2-cyanophenyl)-2-{[2-(3-fluorophenyl)ethyl]amino}(3-pyridyl))-N-(2-methoxyethyl)carboxamide]	238 nM
N#Cc1ccccc1-c1ccc(C(=O)NCCN2CCNCC2)c(NCCc2cccc(F)c2)n1 [(6-(2-cyanophenyl)-2-{[2-(3-fluorophenyl)ethyl]amino}(3-pyridyl))-N-(2-piperazinylethyl)carboxamide]	16200 nM
N#Cc1ccccc1-c1ccc(C(=O)NCCc2cnccn2)c(NCCc2cccc(F)c2)n1 [(6-(2-cyanophenyl)-2-{[2-(3-fluorophenyl)ethyl]amino}(3-pyridyl))-N-(2-pyrazin-2-ylethyl)carboxamide]	266 nM
N#Cc1ccccc1-c1ccc(C(=O)NCc2ccccn2)c(NCCc2cccc(F)c2)n1 [(6-(2-cyanophenyl)-2-{[2-(3-fluorophenyl)ethyl]amino}(3-pyridyl))-N-(2-pyridylmethyl)carboxamide]	29 nM
N#Cc1ccccc1-c1ccc(C(=O)NCCN2CCC[C@H](NC(=O)OCc3ccccc3)C2=O)c(NCCc2cccc(F)c2)n1 [(6-(2-cyanophenyl)-2-{[2-(3-fluorophenyl)ethyl]amino}(3-pyridyl))-N-(2-{2-oxo-3-[(phenylmethoxy)carbonylamino]piperidyl}ethyl)carboxamide]	11800 nM
N#Cc1ccccc1-c1ccc(C(=O)NCCCO)c(NCCc2cccc(F)c2)n1 [(6-(2-cyanophenyl)-2-{[2-(3-fluorophenyl)ethyl]amino}(3-pyridyl))-N-(3-hydroxypropyl)carboxamide]	318 nM
COCCCNC(=O)c1ccc(-c2ccccc2C#N)nc1NCCc1cccc(F)c1 [(6-(2-cyanophenyl)-2-{[2-(3-fluorophenyl)ethyl]amino}(3-pyridyl))-N-(3-methoxypropyl)carboxamide]	396 nM
N#Cc1ccccc1-c1ccc(C(=O)NCc2cccnc2)c(NCCc2cccc(F)c2)n1 [(6-(2-cyanophenyl)-2-{[2-(3-fluorophenyl)ethyl]amino}(3-pyridyl))-N-(3-pyridylmethyl)carboxamide]	24 nM
N#Cc1ccccc1-c1ccc(C(=O)NCC2CCNCC2)c(NCCc2cccc(F)c2)n1 [(6-(2-cyanophenyl)-2-{[2-(3-fluorophenyl)ethyl]amino}(3-pyridyl))-N-(4-piperidylmethyl)carboxamide]	336 nM
N#Cc1ccccc1-c1ccc(C(=O)NCC2CC2)c(NCCc2cccc(F)c2)n1 [(6-(2-cyanophenyl)-2-{[2-(3-fluorophenyl)ethyl]amino}(3-pyridyl))-N-(cyclopropylmethyl)carboxamide]	136 nM
N#Cc1ccccc1-c1ccc(C(=O)NCc2ccno2)c(NCCc2cccc(F)c2)n1 [(6-(2-cyanophenyl)-2-{[2-(3-fluorophenyl)ethyl]amino}(3-pyridyl))-N-(isoxazol-5-ylmethyl)carboxamide]	21 nM
N#Cc1ccccc1-c1ccc(C(=O)NCc2cnccn2)c(NCCc2cccc(F)c2)n1 [(6-(2-cyanophenyl)-2-{[2-(3-fluorophenyl)ethyl]amino}(3-pyridyl))-N-(pyrazin-2-ylmethyl)carboxamide]	26 nM
N#Cc1ccccc1-c1ccc(C(=O)NCc2cc[nH]n2)c(NCCc2cccc(F)c2)n1 [(6-(2-cyanophenyl)-2-{[2-(3-fluorophenyl)ethyl]amino}(3-pyridyl))-N-(pyrazol-3-ylmethyl)carboxamide]	15 nM
N#Cc1ccccc1-c1ccc(C(=O)NCC2CCCN2)c(NCCc2cccc(F)c2)n1 (stereo not drawn) [(6-(2-cyanophenyl)-2-{[2-(3-fluorophenyl)ethyl]amino}(3-pyridyl))-N-(pyrrolidin-2-ylmethyl)carboxamide]	439 nM

SMILES	IC50
N#Cc1ccccc1-c1ccc(C(=O)NCC2CCNC2)c(NCCc2cccc(F)c2)n1 (stereo not drawn) [(6-(2-cyanophenyl)-2-{[2-(3-fluorophenyl)ethyl]amino}(3-pyridyl))-N-(pyrrolidin-3-ylmethyl)carboxamide]	963 nM
COC(=O)NCCNC(=O)c1ccc(-c2ccccc2C#N)nc1NCCc1cccc(F)c1 [(6-(2-cyanophenyl)-2-{[2-(3-fluorophenyl)ethyl]amino}(3-pyridyl))-N-[2-(methoxycarbonylamino)ethyl]carboxamide]	1120 nM
CNCCNC(=O)c1ccc(-c2ccccc2C#N)nc1NCCc1cccc(F)c1 [(6-(2-cyanophenyl)-2-{[2-(3-fluorophenyl)ethyl]amino}(3-pyridyl))-N-[2-(methylamino)ethyl]carboxamide]	4460 nM
CN1CCN(CCCNC(=O)c2ccc(-c3ccccc3C#N)nc2NCCc2cccc(F)c2)CC1 [(6-(2-cyanophenyl)-2-{[2-(3-fluorophenyl)ethyl]amino}(3-pyridyl))-N-[3-(4-methylpiperazinyl)propyl]carboxamide]	3060 nM
N#Cc1ccccc1-c1ccc(C(=O)NCC(CO)CO)c(NCCc2cccc(F)c2)n1 [(6-(2-cyanophenyl)-2-{[2-(3-fluorophenyl)ethyl]amino}(3-pyridyl))-N-[3-hydroxy-2-(hydroxymethyl)propyl]carboxamide]	209 nM
Cn1ccc(CNC(=O)c2ccc(-c3ccccc3C#N)nc2NCCc2cccc(F)c2)n1 [(6-(2-cyanophenyl)-2-{[2-(3-fluorophenyl)ethyl]amino}(3-pyridyl))-N-[(1-methylpyrazol-3-yl)methyl]carboxamide]	32 nM
Cn1nccc1CNC(=O)c1ccc(-c2ccccc2C#N)nc1NCCc1cccc(F)c1 [(6-(2-cyanophenyl)-2-{[2-(3-fluorophenyl)ethyl]amino}(3-pyridyl))-N-[(1-methylpyrazol-5-yl)methyl]carboxamide]	31 nM
COc1ncccc1CNC(=O)c1ccc(-c2ccccc2C#N)nc1NCCc1cccc(F)c1 [(6-(2-cyanophenyl)-2-{[2-(3-fluorophenyl)ethyl]amino}(3-pyridyl))-N-[(2-methoxy(3-pyridyl))methyl]carboxamide]	87 nM
Cc1ncccc1CNC(=O)c1ccc(-c2ccccc2C#N)nc1NCCc1cccc(F)c1 [(6-(2-cyanophenyl)-2-{[2-(3-fluorophenyl)ethyl]amino}(3-pyridyl))-N-[(2-methyl(3-pyridyl))methyl]carboxamide]	22 nM
N#Cc1ccccc1-c1ccc(C(=O)NCC2CCCNC2=O)c(NCCc2cccc(F)c2)n1 (stereo not drawn) [(6-(2-cyanophenyl)-2-{[2-(3-fluorophenyl)ethyl]amino}(3-pyridyl))-N-[(2-oxo(3-piperidyl))methyl]carboxamide]	14 nM
N#Cc1ccccc1-c1ccc(C(=O)NCC2CCNC2=O)c(NCCc2cccc(F)c2)n1 (stereo not drawn) [(6-(2-cyanophenyl)-2-{[2-(3-fluorophenyl)ethyl]amino}(3-pyridyl))-N-[(2-oxopyrrolidin-3-yl)methyl]carboxamide]	32 nM
N#Cc1ccccc1-c1ccc(C(=O)NCc2cccnc2CNC(=O)c2ccc(-c3ccccc3C#N)nc2NCCc2cccc(F)c2)c(NCCc2cccc(F)c2)n1 [(6-(2-cyanophenyl)-2-{[2-(3-fluorophenyl)ethyl]amino}(3-pyridyl))-N-[(3-{[(6-(2-cyanophenyl)-2-{[2-(3-fluorophenyl)ethyl]amino}(3-pyridyl))carbonylamino]methyl}(2-pyridyl))methyl]carboxamide]	2440 nM
N#Cc1ccc(CNC(=O)c2ccc(-c3ccccc3C#N)nc2NCCc2cccc(F)c2)cc1 [(6-(2-cyanophenyl)-2-{[2-(3-fluorophenyl)ethyl]amino}(3-pyridyl))-N-[(4-cyanophenyl)methyl]carboxamide]	968 nM
N#Cc1ccccc1-c1ccc(C(=O)NCc2ccc(F)cc2)c(NCCc2cccc(F)c2)n1 [(6-(2-cyanophenyl)-2-{[2-(3-fluorophenyl)ethyl]amino}(3-pyridyl))-N-[(4-fluorophenyl)methyl]carboxamide]	2110 nM
Cc1ccc(CNC(=O)c2ccc(-c3ccccc3C#N)nc2NCCc2cccc(F)c2)cc1 [(6-(2-cyanophenyl)-2-{[2-(3-fluorophenyl)ethyl]amino}(3-pyridyl))-N-[(4-methylphenyl)methyl]carboxamide]	24300 nM
COc1ccc(CNC(=O)c2ccc(-c3ccccc3C#N)nc2NCCc2cccc(F)c2)cn1 [(6-(2-cyanophenyl)-2-{[2-(3-fluorophenyl)ethyl]amino}(3-pyridyl))-N-[(6-methoxy(3-pyridyl))methyl]carboxamide]	8100 nM
Cc1cccc(CNC(=O)c2ccc(-c3ccccc3C#N)nc2NCCc2cccc(F)c2)n1 [(6-(2-cyanophenyl)-2-{[2-(3-fluorophenyl)ethyl]amino}(3-pyridyl))-N-[(6-methyl(2-pyridyl))methyl]carboxamide]	54 nM
Cc1ccc(CNC(=O)c2ccc(-c3ccccc3C#N)nc2NCCc2cccc(F)c2)cn1 [(6-(2-cyanophenyl)-2-{[2-(3-fluorophenyl)ethyl]amino}(3-pyridyl))-N-[(6-methyl(3-pyridyl))methyl]carboxamide]	426 nM
